#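 Dose response: 5 concentrations. Exposure: 48 h. Format: 96-well plates. Endpoint: linear interpolation; highest concentration if not reached. GI50 marks 50% less growth. Definition used: TGI = concentration required for complete inhibition of growth.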
# Experiments:
# Assay in all cases: NCI-60 cell line screen, 48 h
# [1] = test system: HT29 colon
# [2] = test system: SK-MEL-2 melanoma
# [3] = test system: K-562 leukemia
# [4] = test system: HOP-92 NSCLC
# [5] = test system: MOLT-4 leukemia
# [6] = test system: NCI-H522 lung
# [7] = test system: SR leukemia
# [8] = test system: RXF 393 renal
# [9] = test system: SN12C renal
# [10] = test system: CAKI-1 renal
Structure (SMILES),GI50 [1],TGI [1],GI50 [2],TGI [2],GI50 [3],TGI [3],GI50 [4],TGI [4],GI50 [5],TGI [5],GI50 [6],TGI [6],GI50 [7],TGI [7],GI50 [8],TGI [8],GI50 [9],TGI [9],GI50 [10],TGI [10]
CCCNc1nc(N(C)O)nc(N(C)O)n1,4.53 µM,> 100 µM,2.59 µM,7.76 µM,2.24 µM,> 100 µM,4.75 µM,> 100 µM,0.194 µM,> 28 µM,1.11 µM,7.3 µM,0.149 µM,> 30.1 µM,2.96 µM,> 62 µM,4.27 µM,> 100 µM,3.15 µM,43.7 µM
O=C1C=C2S[C@H]3C[C@]2(C=C1Br)c1c(c(O)c2c4c1=NCCC=4C=N2)N3,,1.55 µM,,1.39 µM,,,,2.28 µM,,0.418 µM,,0.716 µM,,> 100 µM,,0.947 µM,,2.48 µM,,3.07 µM
O=C1NC(=NCc2cccs2)SC1Cc1ccc2ncccc2c1 (stereo not given),11.7 µM,> 25 µM,> 25 µM,> 25 µM,17.3 µM,> 25 µM,10.3 µM,> 25 µM,14.5 µM,> 25 µM,16.1 µM,> 25 µM,8.86 µM,> 25 µM,> 19.3 µM,> 25 µM,> 23.6 µM,> 25 µM,19.5 µM,> 25 µM
COc1c(OC(C)=O)cc2c(OC(C)=O)c1CC(C)CC(OC)C(O)C(C)/C=C(\C)C(OC(N)=O)C(OC)/C=C\C=C(/C)C(=O)N2 (stereo not given),,> 100 µM,,> 100 µM,,> 62.6 µM,,> 100 µM,,> 87.4 µM,,> 41.5 µM,,> 72.6 µM,,> 100 µM,,> 100 µM,,> 100 µM
CCOP(=O)(CCP(=O)(OCC)OCC)OCC.C[CH2][Sn]([Cl])([Cl])[CH2]C,62.7 µM,> 93.6 µM,18.9 µM,43.1 µM,27.4 µM,> 100 µM,19.7 µM,39.2 µM,39.9 µM,> 100 µM,1.64 µM,4.97 µM,38.2 µM,> 100 µM,15.3 µM,30.1 µM,48.1 µM,> 69.8 µM,13.9 µM,35 µM
CCCc1cc(=O)oc2c(C(=O)CC(C)C)c(O)c(CC=C(C)C)c(O)c12,15.1 µM,> 50 µM,9.71 µM,49 µM,4.13 µM,> 50 µM,1.25 µM,4.15 µM,11.7 µM,> 50 µM,8.17 µM,> 50 µM,16.2 µM,> 50 µM,13.7 µM,45.2 µM,8.84 µM,> 50 µM,8.38 µM,33.9 µM
CCCOc1ccc(/C(Cl)=C(\C=O)c2ccc(OC)c(OC)c2)cc1OCCC,,18.5 µM,,32 µM,,> 100 µM,,51.2 µM,,> 100 µM,,6.12 µM,,12 µM,,25.3 µM,,> 100 µM,,> 100 µM
O=C1NC(=NCC(CO)c2ccccc2)S/C1=C\c1ccc2ncccc2c1 (stereo not given),19.7 µM,> 25 µM,> 25 µM,> 25 µM,10.6 µM,> 25 µM,> 25 µM,> 25 µM,> 25 µM,> 25 µM,> 14.1 µM,> 25 µM,4.49 µM,> 22.7 µM,> 20.3 µM,> 25 µM,17.6 µM,> 25 µM,> 25 µM,> 25 µM
COC1=C(OC)C(=O)C(/C=C(\C)C(=O)O)=C(C)C1=O,> 100 µM,> 100 µM,> 100 µM,> 100 µM,> 100 µM,> 100 µM,> 100 µM,> 100 µM,> 100 µM,> 100 µM,> 100 µM,> 100 µM,> 100 µM,> 100 µM,> 100 µM,> 100 µM,> 100 µM,> 100 µM,> 100 µM,> 100 µM
COc1ccc2c(=O)c([Se]c3coc4cc(OC)ccc4c3=O)coc2c1,,> 100 µM,,> 100 µM,,> 100 µM,,> 100 µM,,> 100 µM,,> 100 µM,,> 100 µM,,> 100 µM,,> 100 µM,,> 100 µM
Nc1ccc2c(c1)C(=O)c1ccc(F)cc1-2,,> 100 µM,,> 100 µM,,> 100 µM,,> 100 µM,,> 100 µM,,> 100 µM,,> 100 µM,,> 100 µM,,> 100 µM,,> 100 µM
O=c1[nH]c(=S)[nH]c2c1sc(=S)n2-c1ccccc1,,> 100 µM,,> 100 µM,,> 100 µM,,> 100 µM,,> 100 µM,,> 100 µM,,> 100 µM,,> 100 µM,,> 100 µM,,> 100 µM
CCCCCCN(CCCCCC)CCCNc1nccc2ccccc12,0.513 µM,1.95 µM,1.8 µM,3.41 µM,1.95 µM,5.18 µM,1.01 µM,2.47 µM,2.56 µM,7.71 µM,1.44 µM,3.23 µM,1.65 µM,4.6 µM,1.82 µM,5.3 µM,2.27 µM,7.36 µM,1.92 µM,5.33 µM
OC(c1ccccc1)(c1ccccc1)c1ccccn1,,> 100 µM,,> 100 µM,,> 100 µM,,> 100 µM,,> 100 µM,,> 100 µM,,> 100 µM,,> 100 µM,,> 100 µM,,> 100 µM
C[N+](C)(C)CCOP(=O)(O)OP(=O)([O-])OCC1CCC(n2ccc(N)nc2=O)O1 (stereo not given),,> 100 µM,,> 100 µM,,> 100 µM,,> 100 µM,,> 100 µM,,> 100 µM,,> 100 µM,,> 100 µM,,> 100 µM,,> 100 µM
O=C1C2=C(C(=O)c3c(O)ccc(O)c31)N(c1ccc(N3CCOCC3)nc1)Cc1ccccc1O2,0.294 µM,0.787 µM,1.39 µM,3.75 µM,0.0889 µM,,0.202 µM,0.469 µM,0.0872 µM,,0.0581 µM,0.194 µM,0.108 µM,> 100 µM,0.148 µM,0.308 µM,0.262 µM,0.848 µM,,
